Laboratory results reported in publication PMC7613620, “Reaction hijacking of tyrosine tRNA synthetase as a whole-of-life-cycle antimalarial strategy” (Science (New York, N.Y.), 2022).

What was measured:
[1] = system: eIF2α phosphorylation in P. falciparum; assay: Western blot for phosphorylated-eIF2α; assay type: cell-based, Plasmodium falciparum; details: wildtype P. falciparum cultures
Experimental: Synchronous ring-stage YRScyt conditional knockdown line and the aptamer-regulatable control
700 the drug plate. Lowest drug treatment and a lethal dose of chloroquine (200 nM) served as reference
Two guide RNAs (gRNA1: […] and gRNA2:
Ring-stage P. falciparum parasites (Dd2 strain) at 10%
Using a modification of a published procedure (14), the
722 cells were labelled with O-propargyl-puromycin (OPP; 4 µM) for 1 h, washed 3x (PBS +3% serum) and
Flow cytometry was performed
730 hematocrit and 5% parasitemia. The RBC pellet was washed 3 x in PBS + cOmplete. Cells were centrifuged
The wash with PBS + cOmplete and
The pellet was resuspended in Bolt LDS sample
The samples were vortexed for 10 min at room temperature.
Secondary antibodies: goat
740 anti-rabbit IgG-peroxidase (Sigma-Aldrich-A0545; 1:20 000), goat anti-mouse IgG-peroxidase (Chemicon-
Chemiluminescence was detected using the Bio-Rad ChemiDocTM MP imaging
For the human mature YRS construct,
The YRS sequences were codon optimized for E. coli,
The vector was transformed into
PfYRS, PfYRSS234C and HsYRS were induced
Cell pellets were resuspended in 40 mL lysis
Cells were lysed by sonication (Microtip, QSonica)
The supernatant was applied to a 5
757 mL HisTrap HP column (GE Healthcare) and washed with 50 mL binding buffer containing 50 mM Tris-
His-YRS was eluted using a 0-500 mM
The eluted His-YRS was dialyzed overnight at 4°C
760 against 50 mM Tris-HCl, pH 8, 500 mM NaCl, 30 mM imidazole, 1 mM TCEP with the addition of His-
Cleaved His tags from His-YRS and TEV
YRS was further purified by gel filtration using a HiLoad 16/600 Superdex 200 column (GE

[2] = system: H460; assay: H460 cell viability (ATP content); assay type: cell-based; details: Homo sapiens, NCI-H460, 72 h, read-out: H460 IC50(72h)
Experimental: (§1) 574 H1650 is a human lung cancer derived ATG7-null cell line (49) that can be used to assess effects on targets
(§2) 576 adenocarcinoma; bronchoalveolar carcinoma). Other cells lines used are: H460 (NCI-H460; human lung;
(§3) 577 carcinoma; large cell lung cancer; ATCC: HTB-177); and HCT116 (human colon; colorectal carcinoma;
(§4) 578 ATCC: CCL-247; Lot : 5056139). Each of the cell lines was received from the American Type Culture
(§5) 579 Collection (ATCC) and passaged twice before freezing. Cells were cultured in the presence or absence of
(§6) 580 inhibitors and cell viability was assessed by comparing the ATP content in compound-treated wells with
(§7) 581 that in DMSO-treated wells as previously described (11). […]
(§8) 585 37°C humidified incubator as adherent semi-confluent monolayers in complete Dulbecco’s Modified Eagle
(§9) 586 Media (c-DMEM). DMEM (Gibco™, Thermo Fisher Scientific, Australia) was supplemented with 10%

[3] = system: P. falciparum (3D7); assay: P. falciparum (3D7) culture growth inhibition, 72 h; assay type: cell-based, Plasmodium falciparum; details: Plasmodium falciparum, 3D7, 72 h, read-out: Pf3D7 IC50(72h)
Experimental: (1 picture or pasted object on this page, not shown here)
553 Sigma-Aldrich) for 48-72 h. For drug pulse assays, tightly synchronized parasites (1-1.5% parasitemia,
554 0.2% final hematocrit) were added to the plates and incubated for 3 h. Drugs were removed and the
555 parasitemia assessed in the trophozoite stage of the next cycle.
557 Compounds were tested against a range of drug resistant field isolates and laboratory strains using a
558 modified [3H]-hypoxanthine incorporation assay, as previously reported (46). Field isolates 7G8, Cam3.1,
559 Dd2, K1, TM90C2B and NF54 were obtained from MR4 (www.beiresources.org).
561 Mammalian cell culture experiments
562 The HepG2 (Human hepatocyte carcinoma) cell line was procured from ATCC (American Type
563 Culture Collection, Manassas, USA; HB-8065) and viability assessed using Cell Titer-GLO luminescent
564 cell viability assay reagents (Promega, catalogue number: G7570) (47, 48). For the assay, 2000 cells/well
565 were plated in 384-well plates 24 h prior to the experiment and incubated at 37°C in a CO2 incubator. The
566 medium was removed and cells were treated with fresh medium containing either vehicle (0.5% DMSO)
567 or serially diluted test compounds or doxorubicin (1.3 nM to 25 µM) in a final volume of 50 µl/well and
568 further incubated for 72 h at 37°C in a CO2 incubator.
569 were treated with 5 µl of 1% Triton X-100 (final assay conc. 0.1%). Following incubation, 25 µl of medium
570 was discarded and 25 µl of Cell Titer-GLO reagent was added to each well and the plate was kept on a plate
571 shaker for 15 min at 25°C with shaking at 300 rpm. Luminescence signals were measured in a Spectramax
572 M5 reader (Molecular Devices).
as §1, §2, §3, §4, §5, §6
581 that in DMSO-treated wells as previously described (11).
583 HeLa cells (human cervical adenocarcinoma; genome sequenced (Garvin Institute, Australia) and verified

[4] = system: H1650; assay: H1650 cell viability (ATP content); assay type: cell-based; details: Homo sapiens, NCI-H1650, 72 h, read-out: H1650 IC50(72h)
Experimental: as §1, §2, §3, §4, §5, §6, §7, §8, §9

[5] = system: HCT116; assay: HCT116 cell viability (ATP content); assay type: cell-based; details: Homo sapiens, HCT-116, 72 h, read-out: HCT116 IC50(72h)
Experimental: as §1, §2, §3, §4, §5, §6, §7, §8, §9

[6] = target: T1, PfYRS (Plasmodium falciparum, UniProt Q8IAR7); assay: Tyrosine acylation of cognate tRNATyr by PfYRS; assay type: biochemical
T1 sequence (Q8IAR7 entry or part of it): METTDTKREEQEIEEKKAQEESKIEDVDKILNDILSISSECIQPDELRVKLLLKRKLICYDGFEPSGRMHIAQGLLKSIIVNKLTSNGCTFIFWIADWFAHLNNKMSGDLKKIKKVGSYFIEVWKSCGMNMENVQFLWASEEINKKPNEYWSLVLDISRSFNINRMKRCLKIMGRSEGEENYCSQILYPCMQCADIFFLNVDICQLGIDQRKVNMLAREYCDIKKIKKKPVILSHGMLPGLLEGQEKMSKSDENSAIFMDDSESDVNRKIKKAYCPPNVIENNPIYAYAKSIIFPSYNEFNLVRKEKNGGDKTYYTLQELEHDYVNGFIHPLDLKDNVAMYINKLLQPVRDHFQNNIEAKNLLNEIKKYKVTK

[7] = target: PfYRSS234C (Plasmodium falciparum, UniProt Q8IAR7, S234C); assay: biochemical; assay type: binding
Chain of PfYRSS234C (Q8IAR7 whole entry S234C): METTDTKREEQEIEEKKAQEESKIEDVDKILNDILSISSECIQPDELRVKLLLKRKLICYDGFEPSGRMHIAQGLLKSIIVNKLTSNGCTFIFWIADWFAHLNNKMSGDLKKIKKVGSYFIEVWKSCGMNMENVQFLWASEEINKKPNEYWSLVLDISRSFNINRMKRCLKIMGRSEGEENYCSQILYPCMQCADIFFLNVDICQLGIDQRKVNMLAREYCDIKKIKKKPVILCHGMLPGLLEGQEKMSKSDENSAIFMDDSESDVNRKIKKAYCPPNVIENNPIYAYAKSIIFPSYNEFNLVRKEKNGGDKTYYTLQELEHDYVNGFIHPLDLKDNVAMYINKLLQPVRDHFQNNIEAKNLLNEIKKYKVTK
Experimental: (§10) 804 An intron was detected in the PftRNATyr sequence, that was not indicated in PlasmoDB. A T7 RNA
(§11) 805 polymerase promoter sequence was added to the 5’ end of the DNA sequence of P. falciparum and H.
(§12) 806 sapiens tRNATyr. This DNA template and its complementary strand were custom-synthesized by Sigma-
(§13) 807 Aldrich. Two oligonucleotides were annealed at 95°C for 5 min and the double-stranded DNA template
(§14) 808 was used for in vitro transcription. The transcription reaction was incubated at 37°C overnight. The reaction
(§15) 809 mixture consists of template DNA, T7 RNA polymerase and NTP mix as per manufacturer's instructions
(§16) 810 (HiScribe™ T7 Quick High Yield RNA Synthesis Kit, NEB). On the following day, the reaction mixture
(§17) 811 was treated with DNase I at 37°C for 15 min. tRNA was purified using RNA clean-up spin columns
(§18) 812 (Monarch® RNA Cleanup Kit, NEB) to remove contaminants from the transcription reaction.
(§19) 814 Differential scanning fluorimetry (DSF)
(§20) 815 PfYRS and HsYRS at 0.1 mg/ml were incubated with various substrates at 37°C for 1-3 h. PfYRS was
(§21) 816 assayed in 25 mM Tris, pH 8, 150 mM NaCl, 5 mM MgCl2 and 1 mM TCEP. HsYRS was assayed in 50
(§22) 817 mM Tris, pH 7.5, 150 mM NaCl, 50 mM KCl, 5 mM MgCl2 and 1 mM TCEP. SYPRO Orange (Sigma-
(§23) 818 Aldrich; 5,000X concentrate in DMSO) was added to the reaction mixture at a final concentration of 2.5X.
(§24) 819 25 µL of the sample was added into each well of a 96-well qPCR plate (Applied Biosystems). The plate
(§25) 820 was sealed and analysed using StepOnePlus Real-Time PCR system (Applied Biosystems). The samples
(§26) 821 were heated from 20°C to 90°C with a 1% continuous gradient. The thermal unfolding curve was plotted
(§27) 822 as the first derivative curve of the raw fluorescence values. The melting temperature (Tm), defined as the
(§28) 823 peak of the first derivative curve, was used to assess the thermal stability of protein-ligand complexes. KD
(§29) 824 values were calculated from DTm using the equation: ln(KD/[L]) = -131.5 x (∆Tm/Tm,apo) - 1.9, where [L]
(§30) 825 is the concentration of ligand and T is the temperature in Kelvin (40). […]

[8] = target: T1, PfYRS; assay: biochemical; assay type: binding
Experimental: as §10, §11, §12, §13, §14, §15, §16, §17, §18, §19, §20, §21, §22, §23, §24, §25, §26, §27, §28, §29, §30

[9] = target: T2, HsYRS (Homo sapiens, UniProt P54577); assay: Tyrosine acylation of cognate tRNATyr by HsYRS; assay type: biochemical; details: YRS 0.25 μM, ATP 10 μM, 37°C 1 h
T2 construct: made in house; host or cells: E. coli BL21(DE3), pET-11a
T2 sequence (P54577 1-364): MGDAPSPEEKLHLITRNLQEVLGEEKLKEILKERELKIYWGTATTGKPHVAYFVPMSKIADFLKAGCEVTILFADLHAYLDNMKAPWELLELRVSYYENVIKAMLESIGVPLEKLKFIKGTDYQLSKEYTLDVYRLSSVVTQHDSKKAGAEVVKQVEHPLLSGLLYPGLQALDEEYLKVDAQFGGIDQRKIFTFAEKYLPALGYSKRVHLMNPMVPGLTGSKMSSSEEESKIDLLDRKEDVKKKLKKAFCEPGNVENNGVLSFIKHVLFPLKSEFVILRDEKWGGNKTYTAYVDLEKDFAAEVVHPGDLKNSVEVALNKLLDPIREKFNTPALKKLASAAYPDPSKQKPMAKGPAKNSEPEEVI

| Compound | eIF2α phosphorylation [1] | IC50 [2] | IC50 [3] | IC50 [4] | IC50 [5] | IC50 [6] | Kd [7] | Tm ([7]; PfYRSS234C 2.3 μM, after incubation at 37°C for 3 h) | Kd [8] | Tm ([8]; PfYRS 2.3 μM, after incubation at 37°C for 3 h) | DTm ([8]; PfYRS, versus apo) | IC50 [9] |
| --- | --- | --- | --- | --- | --- | --- | --- | --- | --- | --- | --- | --- |
| Nc1ncnc2c1ncn2[C@@H]1O[C@H](COS(N)(=O)=O)[C@@H](O)[C@H]1O [AMS, adenosine 5′-sulfamate, reference compound] | triggers eIF2α phosphorylation | 0.025 ± 0.007 µM | 0.0018 µM | 0.14 µM | 0.026 µM |  |  |  |  |  |  |  |
| Nc1ncnc2c1c(OC(F)F)nn2C1OC(COS(=O)(=O)NC(=O)C(N)Cc2ccc(O)cc2)C(O)C1O (stereo not drawn) [ML901-Tyr] |  |  |  |  |  | 1.6 µM | 0.0039 µM | 59.7 ± 0.3 oC | 0.0007 µM | 65.1 ± 0.1 oC | 14.9 oC | 23 µM |
